Results from patent US20060057071A1, “Paramagnetic complexes with pendant crown compounds showing improved targeting-specificity as MRI contrast agents” (priority 2004, published 2006).
“And” between values parts separate entries of the source, which are not always exact repeats. Identical values can stand only once.

How the values were obtained:
[1] = 1H NMRD profiles (water proton relaxivity); assay type: physicochemical; conditions: 25° C., pH 6.9, fits of NMRD profile and 17O NMR
Excerpt: (§1) Measuring the relaxation rates of an abundant nuclear species as a function of the magnetic field over a wide range is called relaxometry. A relaxometry profile is a plot of the nuclear magnetic relaxation rate, usually 1/T1, as a function of the Larmor frequency or the magnetic field. This profile is also called a Nuclear Magnetic Resonance Dispersion (NMRD) profile. Compared with the NMRD profile, the prominent advantage of the ^17O NMR technique is that it allows the accurate determination of the water exchange rate 1/TM. This is a consequence of the oxygen nucleus being closer to the paramagnetic centre when bound in the inner-sphere, wherein the outer-sphere contributions to the relaxation rates are negligibly small. With the help of NMRD profiles, ^17O NMR measurements, and the Soloman-Bloemnergen-Morgan theory, several important parameters, such as TM, TR, TV, Δ^2 and rH, can be measured.
Water proton nuclear magnetic resonance dispersion NMRD profile is used to record the longitudinal water proton relaxation rates as a function of magnetic fields. The method is, in principle, sensitive to all of the parameters that influence relaxivity. The ^1H NMRD profiles were measured over a continuum of magnetic field strength from 0.00024 to 0.24 T (corresponding to 0.01-10 MHz proton Larmor frequency, 1 T≈41.7 MHz) on a Spinmaster FFC (Stelar, Mede (PV)), which is a fast field-cycling NMR relaxometer installed at the LIMA Laboratory (Bioindustry Park, Ivrea (TO), Italy). The relaxometer worked under complete control with an absolute uncertainty in 1/T1 of ±2%. The NMRD profiles were measured using 1-2 mM solutions of the complexes.

[2] = Variable-temperature 17O NMR transverse relaxation rate; assay type: physicochemical; conditions: for water exchange rate kex^298 / TM: 25° C.; for TM: pH 6.9, derived from VT 17O NMR spectroscopy; for exchange lifetime TM of inner-sphere coordinated water: 298 K (25° C.)
Excerpt: as §1
The variable-temperature ^17O NMR measurements were recorded on a JEOL EX-90 (2.1 T) spectrometer that was equipped with a 5 mm probe, by using a D2O external lock. The experimental settings were: spectral width of 10000 Hz, pulse width of 7 μs, acquisition time of 10 ms, 1000 scans, and no sample spinning. Solutions containing 2.6% of ^17O isotope were used. The observed transverse relaxation rates (R2obs^O) were calculated from the signal width at half height.

[3] = tested on: kidney cortex; assay: In vivo MRI, renal intensity enhancement; design: species or system rat; conditions: for maximal renal intensity enhancement (IE): 0.1 mmol/kg (standard dosage), first few minutes after administration
Method: (§2) To study the MRI contrast and biodistribution behavior of gadolinium complexes […] pendant crown ethers, experiments were performed using male Sprague-Dawley (SD) rats that weighted 150-180 g, and were housed at the Wuhan Institute of Physical and Mathematics of the Chinese Academy of Sciences (Wuhan, Hubei Province, China). All procedures conformed to the institutional guidelines for animal welfare. The rat was injected via the femoral vein with 1 mL saline solution of GdL1 in concentrations of 0.1, 0.033, and 0.02 mM/kg, which are the standard dosage, one third and one fifth of the standard dosage used in clinic currently. MR imaging was performed on a 4.7 T Bruker BIO-SPEC-47/30 MRI scanner with a custom spiral surface coil. The animal was scanned in the prone position in the MRI experiment. […] The total duration of the dynamic scanning lasted up to 400 min after the administration, with an image every 4 min. A water tube was placed in the field of view as a phantom reference. The intensity enhancement (IE) of the region of interest (RI) at time point t is expressed by IE=100% (RI(t)-RI(0))/RI(0) where RI(t) corresponds to the normalized signal intensity as measured at time point, t and RI(0) is the normalized signal intensity precontrast.

[4] = tested on: liver parenchyma; assay: In vivo MRI, hepatic intensity enhancement; design: species or system rat; conditions: for maximal hepatic IE: rat
Method: as §2

[5] = tested on: MIHA cells; assay: AO/EB staining, laser scanning confocal microscopy; assay type: cell-based; conditions: 10 μM, 1 h, 2 h, 8 h, 24 h incubation, 37° C.
Method: MIHA cells in the absence (control) and presence of Gd-DOTA (10 μM), Gd-DO3A (10 μM), and GdL1 (10 μM) incubated at 37° C. and 5% CO2, 95% air in a humidified incubator for 1 h, 2 h, 8 h, and 24 h, respectively.
Based on cell morphology and cell membrane integrity, normal, necrotic, and apoptotic cells can be distinguished using laser confocal microscopy. FIG. 22 gives the cell morphology in the absence and presence of Gd-DOTA (10 μM), Gd-DO3A (10 μM), and GdL1 (10 μM) at various time intervals after the incubation. In the absence or presence of the Gd^3+ complexes, the nuclei of the living cells were stained as bright blue spots in the nucleus.

[6] = 1H NMRD profiles (water proton relaxivity); assay type: physicochemical; conditions: 20 MHz, 25° C., pH 6.9
[7] = 298 K; cited from earlier work
[8] = cited from earlier work
[9] = tested on: MIHA cells; assay: In vitro cytotoxicity, MTT / XTT cell proliferation assay; assay type: cell-based
Method: To further investigate the potential ability of GdL1 as an NMRI contrast agent, its cytotoxicity was measured by MTT assay. The toxicity of GdL1 was determined from the dose-dependence of surviving cells after exposure to this Gd^3+ complex at different time intervals. For comparison, the cytotoxicities of Gd-DOTA and Gd-DO3A were measured under the same conditions.
To evaluate the toxicity of prepared Gd^3+ complexes, a calorimetric assay (XTT-based) for the non-radioactive quantification of cell proliferation was applied. In the cell proliferating process, the added tetrazolium salt XTT was cleaved to a formazan dye by metabolically active cells, and the quantification of cell growth was achieved by the variation of the absorbance at 492 nm. […] Different concentrations of drugs were adjusted by performing serial dilution. The incubation period of the cell culture ranged from 1, 2, 8, and 24 hrs. XTT dye at a concentration of 5 mg/mL (sigma, St. Louis, Mo.) was added, and the plates were incubated for 12 h in a moist chamber at 37° C. The optical density was determined by eluting the dye with dimethyl sulfoxide, and the absorbance was measured at 570 nm. At least three independent experiments were performed.

Compound	D [1]	TR [1]	TV [1]	a [1]	q [1]	r [1]	Δ^2 [1]	water exchange rate kex^298 [2]	TM [2]	exchange lifetime TM of inner-sphere coordinated water ([2]; 2.12 T)	maximal renal intensity enhancement (IE) ([3]; rat)	time after administration of maximal hepatic IE ([4]; 0.1 mmol/kg)	maximal hepatic IE ([4]; 0.1 mmol/kg (standard dosage))	time after administration of maximal hepatic IE ([4]; 0.033 (0.03) mmol/kg)	maximal hepatic IE ([4]; 0.033 (0.03) mmol/kg)	cell morphology (apoptotic or necrotic cells) [5]	proton relaxivity r1 (r1p) [6]	further results
O=C([O-])CN1CCN(CC(=O)[O-])CCN(CC(=O)O)CCN(CC(=O)[O-])CC1.[Gd+3] [Gd-DOTA, reference compound]	2.24E-5 cm^2s^−1	73 ps	7.7 ps	4.0 Å	1	3.1 Å	1.3e+19 s⁻¹	4.1e+06 s⁻¹	300 ns	245 ns	110% and 123%	30 to 40 min	70%	30 to 40 min	30%	no obvious apoptotic or necrotic cells were found	4.74 mM⁻¹ s⁻¹	time after administration at which almost all renal IE was diminished ([3]; 0.1 mmol/kg, kidney cortex): 70 min; hepatic IE ([4]; 0.02 mmol/kg): no remarkable hepatic IE was detected; time after which hepatic IE faded away ([4]; 0.1 and 0.033 mmol/kg): 100 min; thermodynamic stability log K [7]: 24.6; r1p ([8]; 20 MHz, 298 K, typical values): 4.74 mM⁻¹ s⁻¹; relaxivity ([8]; 37° C., 20 MHz): 3.4 mM⁻¹ s⁻¹; bound water molecular resident lifetime TM ([8]; 298 K, typical values): about 244 ns
O=C([O-])CN1CCN(CCN2CCOCCOCCOCCOCC2)CCN(CC(=O)[O-])CCN(CC(=O)[O-])CC1.[Gd+3] [GdL1, Gd^3+ Complex of L1]	2.24E-5 cm^2s^−1	146 ps	13 ps	4.0 Å	2	2.98 Å	8e+19 s⁻¹	1.82e+07 s⁻¹	55 ns	55 ns	~200%	90 to 100 min	105%	60 to 100 min	90%	no obvious apoptotic or necrotic cells were found	9.65 mM⁻¹ s⁻¹	temperature at which R2p attains its maximum ([2]; 2.12 T, range 273-340 K): ~270 K; resident lifetime in renal tissue ([3]; 0.1 mmol/kg): > 3 h; renal IE preserved 250 minutes after injection ([3]; 0.1 mmol/kg, 250 min): 40%; kidney contrast enhancement two hours after the injection ([3]; 0.1 mmol/kg, two hours): faint contrast enhancement could still be observed; maximal renal IE ([3]; 0.033 (0.03) mmol/kg, one third of standard dose, rat): 123% and 120%; time for which strong renal intensity enhancement is maintained ([3]; summary statement): more than four hours; time after administration of maximal hepatic IE ([4]; 0.02 mmol/kg): 60 min; hepatic IE maintained after 3 h ([4]; 0.02 mmol/kg, 3 h): over 40%; hepatic IE a few minutes after the injection ([4]; 0.03 mmol/kg): about 50%; hepatic IE persisting after 320 min ([4]; 0.03 mmol/kg, 320 min): 50%; time for which high hepatic IE stays on a plateau ([4]; 0.033 mmol/kg): more than 4 h; hepatic IE level on plateau ([4]; 0.033 mmol/kg, more than 4 h after administration): > 60%; resident lifetime in hepatic tissues ([4]; 0.1 mmol/kg): > 4 h; time after administration at which obvious enhancement of the liver was monitored ([4]; 0.1 mmol/kg): 30 min; time for which strong/high hepatic IE was maintained ([4]; 0.1 mmol/kg): more than 4 h; time for which strong hepatic intensity enhancement is maintained ([4]; summary statement): more than four hours; viability of the cells ([9]; 1×10^−5 mol L^−1 to 1×10^−2 mol L^−1, 1 h, 2 h, 8 h, 24 h incubation): above 90%; effect on cell viability / cytotoxicity ([9]; up to 1×10^−2 M, up to 24 h incubation): not affected obviously
